Source: patent US8309550B2, “Kinase inhibitors and their use as pharmaceutical agents” (Shanghai Genomics, Inc., priority 2011, dated 2012)

How the values were obtained:
Format in all cases: biochemical
CDK5/p35 = molecular target: T1, CDK5/p35 (Homo sapiens, UniProt Q00535); experiment: Z'-LYTE kinase assay CDK5/p35; settings: read-out: Kinase inhibition, IC50 CDK5/p35
T1 construct: purchased Invitrogen PV3000
Method: (§1) Kinase assays. The compounds from the example above were tested for their ability to inhibit kinases. Recombinant human CDK2/cyclinA (PV3267), CDK1/cyclinB (PV3292), CDK5/p35 (PV3000) and Aurora A (PV3612) were purchased from Invitrogen (Carlsbad, Calif., USA). Kinase dosage and Z′-LYTE™ substrate for each kinase assay is as follows: CDK2/cyclinA-8 ng/reaction, Ser/Thr 12 Peptide; CDK1/cyclinB-0.8 ng/reaction, Ser/Thr 12 Peptide, CDK5/p35-0.8 ng/reaction, Ser/Thr 12 Peptide, and Aurora A-16 ng/reaction, Ser/Thr 1 Peptide. All enzymatic assays were performed using Z′-LYTE™ Kinase Assay Kits and were carried out following protocols provided by Invitrogen. To prepare stock solutions, compounds were dissolved at 10 mM in 100% DMSO and stored at 4° C. in amber glass vials. Enzyme reactions were initiated by adding recombinant enzyme and Z′-LYTE™ Ser/Thr peptide substrate and ATP mixture to 384-well plates containing diluted test compounds. Kinase and corresponding peptide substrate were incubated for 1 hr at room temperature in the presence of varying amounts of test compound with reaction buffer (20 μM ATP, […] [pH 7.5], 5 mM MgCl2, 0.5 mM EGTA, 0.005% Brij-35). Development buffer was added and incubated for another one hour at room temperature. Reactions were terminated by addition of stop buffer, and fluorescence emission intensity ratio 445 nm/520 nm (excited at 400 nm) was quantified by VICTOR-3 Multilabel Reader (Perkin-Elmer, Waltham, Mass., USA). Phosphorylation was calculated from the emission ratio. IC50 was determined using Sigmoid curve-fitting software Origin 6.0 (MicroCal, LLC, Northampton, Mass., USA).

Aurora B = Aurora B (Homo sapiens, UniProt Q96GD4); experiment: Kinase assay Aurora B (Table I); settings: read-out: Kinase inhibition, IC50 Aurora B
Method: [The source words this procedure for another target and reports this target under the same test.] as §1

CDK1/cyclinB = molecular target: T2, CDK1/cyclinB (Homo sapiens, UniProt P06493); experiment: Z'-LYTE kinase assay CDK1/cyclinB; settings: read-out: Kinase inhibition, IC50 CDK1B
T2 construct: purchased Invitrogen PV3292
Method: as §1

CDK2/cyclinA = molecular target: T3, CDK2/cyclinA (Homo sapiens, UniProt P24941); experiment: Z'-LYTE kinase assay CDK2/cyclinA; settings: read-out: Kinase inhibition, IC50 CDK2A
T3 construct: purchased Invitrogen PV3267
Method: as §1

Aurora A = molecular target: T4, Aurora A (Homo sapiens, UniProt O14965); experiment: Z'-LYTE kinase assay Aurora A; settings: read-out: Kinase inhibition, IC50 Aurora A
T4 construct: purchased Invitrogen PV3612
T4 sequence (O14965 1-403): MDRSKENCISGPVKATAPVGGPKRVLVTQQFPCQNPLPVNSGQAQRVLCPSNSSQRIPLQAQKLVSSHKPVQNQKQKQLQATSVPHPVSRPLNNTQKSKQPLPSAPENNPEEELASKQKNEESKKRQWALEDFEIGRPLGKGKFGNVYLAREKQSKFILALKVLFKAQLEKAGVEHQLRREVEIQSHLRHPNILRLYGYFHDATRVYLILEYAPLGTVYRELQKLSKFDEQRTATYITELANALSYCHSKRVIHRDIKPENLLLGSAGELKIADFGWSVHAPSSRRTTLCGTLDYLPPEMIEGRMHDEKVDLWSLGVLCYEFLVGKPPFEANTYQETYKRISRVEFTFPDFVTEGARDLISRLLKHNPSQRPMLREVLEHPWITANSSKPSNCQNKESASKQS
Method: as §1

CDK9T1 = CDK9T1 (Homo sapiens, UniProt P50750); experiment: Kinase assay CDK9T1 (Table I); settings: read-out: Kinase inhibition, IC50 CDK9T1
Method: [The source words this procedure for another target and reports this target under the same test.] as §1

T1 sequence (Q00535 whole entry): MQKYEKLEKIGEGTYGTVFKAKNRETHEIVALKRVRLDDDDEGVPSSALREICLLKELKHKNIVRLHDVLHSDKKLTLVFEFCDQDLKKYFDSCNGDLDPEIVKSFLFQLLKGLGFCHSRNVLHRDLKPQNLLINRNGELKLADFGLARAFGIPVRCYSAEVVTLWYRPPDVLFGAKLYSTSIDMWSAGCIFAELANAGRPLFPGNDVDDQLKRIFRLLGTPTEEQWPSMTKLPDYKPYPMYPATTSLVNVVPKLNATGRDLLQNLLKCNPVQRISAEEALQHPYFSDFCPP
T1 sequence (Q15078 whole entry partner): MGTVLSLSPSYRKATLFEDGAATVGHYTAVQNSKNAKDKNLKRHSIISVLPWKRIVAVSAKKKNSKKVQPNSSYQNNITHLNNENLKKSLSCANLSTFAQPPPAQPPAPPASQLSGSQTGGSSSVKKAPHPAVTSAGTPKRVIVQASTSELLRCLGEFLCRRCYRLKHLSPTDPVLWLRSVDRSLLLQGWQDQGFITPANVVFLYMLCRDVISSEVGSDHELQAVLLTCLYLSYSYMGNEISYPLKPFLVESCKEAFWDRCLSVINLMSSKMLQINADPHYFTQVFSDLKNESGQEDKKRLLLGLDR
Sequence of CDK9T1 (P50750 whole entry): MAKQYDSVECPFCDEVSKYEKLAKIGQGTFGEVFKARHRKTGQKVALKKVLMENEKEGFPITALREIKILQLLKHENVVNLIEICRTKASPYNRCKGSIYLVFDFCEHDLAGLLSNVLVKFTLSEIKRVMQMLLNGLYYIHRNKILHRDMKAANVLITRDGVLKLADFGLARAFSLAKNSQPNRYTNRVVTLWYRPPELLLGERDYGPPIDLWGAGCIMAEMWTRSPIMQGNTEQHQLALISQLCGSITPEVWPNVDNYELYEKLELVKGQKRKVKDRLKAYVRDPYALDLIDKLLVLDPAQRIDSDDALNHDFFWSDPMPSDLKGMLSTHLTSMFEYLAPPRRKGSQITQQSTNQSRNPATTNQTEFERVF
Sequence of CDK9T1 (O60563 whole entry partner): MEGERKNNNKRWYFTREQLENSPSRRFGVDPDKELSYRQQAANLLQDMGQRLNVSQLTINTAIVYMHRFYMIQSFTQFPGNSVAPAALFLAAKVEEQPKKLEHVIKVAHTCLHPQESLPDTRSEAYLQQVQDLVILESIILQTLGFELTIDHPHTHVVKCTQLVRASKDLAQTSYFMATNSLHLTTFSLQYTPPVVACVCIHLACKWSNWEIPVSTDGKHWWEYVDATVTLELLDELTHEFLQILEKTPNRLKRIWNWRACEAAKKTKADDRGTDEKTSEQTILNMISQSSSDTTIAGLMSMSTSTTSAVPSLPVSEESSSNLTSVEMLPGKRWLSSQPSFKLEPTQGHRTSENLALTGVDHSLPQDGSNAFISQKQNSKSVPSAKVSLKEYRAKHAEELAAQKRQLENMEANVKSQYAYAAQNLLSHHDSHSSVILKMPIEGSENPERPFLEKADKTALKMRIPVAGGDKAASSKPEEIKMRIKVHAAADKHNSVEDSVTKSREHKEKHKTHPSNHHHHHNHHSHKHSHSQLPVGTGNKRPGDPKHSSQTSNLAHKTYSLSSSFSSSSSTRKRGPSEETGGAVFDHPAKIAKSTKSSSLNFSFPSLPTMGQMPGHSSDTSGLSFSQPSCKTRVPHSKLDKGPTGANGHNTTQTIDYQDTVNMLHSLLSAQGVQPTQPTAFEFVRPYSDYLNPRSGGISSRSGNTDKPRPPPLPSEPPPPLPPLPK
T2 sequence (P06493 whole entry): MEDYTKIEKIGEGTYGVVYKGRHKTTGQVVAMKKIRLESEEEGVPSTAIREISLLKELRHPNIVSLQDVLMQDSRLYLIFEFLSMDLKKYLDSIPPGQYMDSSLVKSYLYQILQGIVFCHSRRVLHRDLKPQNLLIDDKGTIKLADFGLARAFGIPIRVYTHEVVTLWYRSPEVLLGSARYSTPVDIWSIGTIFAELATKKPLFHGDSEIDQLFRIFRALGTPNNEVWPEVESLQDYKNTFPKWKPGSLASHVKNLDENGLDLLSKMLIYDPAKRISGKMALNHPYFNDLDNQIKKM
T2 sequence (P14635 whole entry partner): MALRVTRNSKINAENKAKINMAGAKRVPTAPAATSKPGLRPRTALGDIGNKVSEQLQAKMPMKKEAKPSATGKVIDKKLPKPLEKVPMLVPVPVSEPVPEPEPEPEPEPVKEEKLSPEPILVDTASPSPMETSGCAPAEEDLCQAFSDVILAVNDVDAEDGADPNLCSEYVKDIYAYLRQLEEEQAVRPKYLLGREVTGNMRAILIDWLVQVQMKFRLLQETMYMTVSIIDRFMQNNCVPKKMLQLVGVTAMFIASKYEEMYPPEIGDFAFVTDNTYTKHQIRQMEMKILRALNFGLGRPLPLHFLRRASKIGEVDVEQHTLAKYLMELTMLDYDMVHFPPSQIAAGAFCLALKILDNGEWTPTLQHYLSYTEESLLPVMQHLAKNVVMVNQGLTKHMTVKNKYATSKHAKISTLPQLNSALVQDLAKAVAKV
Sequence of Aurora B (Q96GD4 whole entry): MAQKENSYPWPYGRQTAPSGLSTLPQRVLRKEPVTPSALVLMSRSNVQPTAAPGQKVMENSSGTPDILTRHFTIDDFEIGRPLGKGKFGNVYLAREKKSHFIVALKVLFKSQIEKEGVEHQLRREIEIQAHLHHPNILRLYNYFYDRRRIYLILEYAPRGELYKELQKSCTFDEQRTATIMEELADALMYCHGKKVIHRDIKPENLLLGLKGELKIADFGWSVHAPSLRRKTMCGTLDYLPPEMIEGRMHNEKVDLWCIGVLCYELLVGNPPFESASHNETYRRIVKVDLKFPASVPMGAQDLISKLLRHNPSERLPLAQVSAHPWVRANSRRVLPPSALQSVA

With CCn1cc(-c2ccnc(Nc3cccc(O)c3)n2)c2ccnc(Cl)c21 [Compound 72, 3-(4-(7-Chloro-1-ethyl-1H-pyrrolo[2,3-c]pyridin-3-yl)pyrimidin-2-ylamino)phenol] the IC50 (CDK5/p35) was 100 nM, the IC50 (Aurora B) was 930 nM and the IC50 (CDK1/cyclinB) was 90 nM. It also gave an IC50 (CDK2/cyclinA) of 4.3 nM, an IC50 (Aurora A) of 800 nM and an IC50 (CDK9T1) of 79 nM.
CCn1cc(-c2ccnc(Nc3ccc(O)cc3)n2)c2cccnc21 [Compound 12, 4-(4-(1-Ethyl-1H-pyrrolo[2,3-b]pyridin-3-yl)pyrimidin-2-ylamino)phenol] showed an IC50 (CDK5/p35) of 5540 nM, an IC50 (Aurora B) of 750 nM and an IC50 (CDK1/cyclinB) of 4110 nM. The IC50 (CDK2/cyclinA) was 172 nM, the IC50 (Aurora A) was 270 nM and the IC50 (CDK9T1) was > 10000 nM.
For Cc1cc(O)cc(C)c1Nc1nccc(-c2cn(C)c3ccccc23)n1 [Compound 5, 3,5-Dimethyl-4-[4-(1-methyl-1H-indol-3-yl)-pyrimidin-2-ylamino]-phenol], the IC50 (CDK5/p35) was > 10000 nM, the IC50 (Aurora B) was > 10000 nM and the IC50 (CDK1/cyclinB) was > 10000 nM. The IC50 (CDK2/cyclinA) was ≥ 100000 nM and the IC50 (Aurora A) was > 10000 nM.
For Cn1cc(-c2ccnc(Nc3ccc(O)cc3Cl)n2)c2ccccc21 [Compound 3, 3-Chloro-4-(4-(1-methyl-1H-indol-3-yl)pyrimidin-2-ylamino)phenol], the IC50 (CDK5/p35) was > 10000 nM, the IC50 (Aurora B) was > 10000 nM and the IC50 (CDK1/cyclinB) was > 10000 nM. The IC50 (CDK2/cyclinA) was 7530 nM, the IC50 (Aurora A) was > 10000 nM and the IC50 (CDK9T1) was > 10000 nM.
Work on CCCn1cc(-c2ccnc(Nc3ccc(S(N)(=O)=O)cc3)n2)c2cccnc21 [Compound 23, 4-(4-(1-Propyl-1H-pyrrolo[2,3-b]pyridin-3-yl)pyrimidin-2-ylamino)benzenesulfonamide] yielded an IC50 (CDK5/p35) of 100 nM, an IC50 (Aurora B) of 5800 nM and an IC50 (CDK1/cyclinB) of 30 nM. The IC50 (CDK2/cyclinA) was 10 nM, the IC50 (Aurora A) was 4900 nM and the IC50 (CDK9T1) was 52 nM.
Molecule CCn1cc(-c2ccnc(Nc3cccc(O)c3)n2)c2cccnc21 [Compound 13, 3-(4-(1-Ethyl-1H-pyrrolo[2,3-b]pyridin-3-yl)pyrimidin-2-ylamino)phenol] has an IC50 (CDK5/p35) of 1960 nM, an IC50 (Aurora B) of 2050 nM and an IC50 (CDK1/cyclinB) of 1180 nM. For the same molecule, the IC50 (CDK2/cyclinA) was 61 nM, the IC50 (Aurora A) was 710 nM and the IC50 (CDK9T1) was 450 nM.
With CCn1cc(-c2ccnc(Nc3ccc(O)cc3C)n2)c2ccccc21 [Compound 8, 4-[4-(1-Ethyl-1H-indol-3-yl)-pyrimidin-2-ylamino]-3-methyl-phenol] the IC50 (CDK5/p35) was > 10000 nM, the IC50 (Aurora B) was > 10000 nM and the IC50 (CDK1/cyclinB) was 8950 nM. The IC50 (CDK2/cyclinA) was 411 nM, the IC50 (Aurora A) was > 10000 nM and the IC50 (CDK9T1) was > 10000 nM.
Molecule Oc1ccc(Nc2nccc(-c3cn(Cc4ccccc4)c4ccccc34)n2)cc1 [Compound 10, 4-[4-(1-Benzyl-1H-indol-3-yl)-pyrimidin-2-ylamino]-phenol] has an IC50 (CDK5/p35) of 4370 nM, an IC50 (CDK1/cyclinB) of 2360 nM and an IC50 (CDK2/cyclinA) of 1170 nM. The IC50 (Aurora A) was 4220 nM and the IC50 (CDK9T1) was 670 nM.
CCn1cc(-c2ccnc(Nc3ccc(O)cc3)n2)c2ccnc(Cl)c21 [Compound 70, 4-(4-(7-Chloro-1-ethyl-1H-pyrrolo[2,3-c]pyridin-3-yl)pyrimidin-2-ylamino)phenol] was tested, and the IC50 (CDK5/p35) was 350 nM, the IC50 (Aurora B) was > 10000 nM and the IC50 (CDK1/cyclinB) was 190 nM. The IC50 (CDK2/cyclinA) was 16 nM, the IC50 (Aurora A) was 2460 nM and the IC50 (CDK9T1) was 95 nM.
Oc1cccc(Nc2nccc(-c3cn(Cc4ccccc4)c4ccccc34)n2)c1 [Compound 11, 3-[4-(1-Benzyl-1H-indol-3-yl)-pyrimidin-2-ylamino]-phenol] was tested, and the IC50 (CDK5/p35) was > 10000 nM, the IC50 (Aurora B) was > 10000 nM and the IC50 (CDK1/cyclinB) was 4820 nM. The IC50 (CDK2/cyclinA) was 4050 nM, the IC50 (Aurora A) was 4670 nM and the IC50 (CDK9T1) was 1170 nM.
CCn1cc(-c2ccnc(Nc3c(C)cc(O)cc3C)n2)c2ccccc21 [Compound 9, 4-[4-(1-Ethyl-1H-indol-3-yl)-pyrimidin-2-ylamino]-3,5-dimethyl-phenol] was tested, and the IC50 (CDK5/p35) was > 10000 nM, the IC50 (Aurora B) was > 10000 nM and the IC50 (CDK1/cyclinB) was > 10000 nM. For the same molecule, the IC50 (CDK2/cyclinA) was > 100000 nM, the IC50 (Aurora A) was > 10000 nM and the IC50 (CDK9T1) was > 10000 nM.
For Cc1cc(O)ccc1Nc1nccc(-c2cn(C)c3ccccc23)n1 [Compound 4, 3-Methyl-4-[4-(1-methyl-1H-indol-3-yl)-pyrimidin-2-ylamino]-phenol], the IC50 (CDK5/p35) was > 10000 nM, the IC50 (Aurora B) was > 10000 nM and the IC50 (CDK1/cyclinB) was > 10000 nM. For the same molecule, the IC50 (CDK2/cyclinA) was 1770 nM and the IC50 (Aurora A) was > 10000 nM.
